According to PubChem BioAssay (NCI):
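Tested at 5 concentrations; 48 h exposure; 96-well plates; endpoints linearly interpolated, else capped at highest concentration. GI50 marks 50% less growth. TGI: concentration producing complete growth inhibition.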

Key:
Experiment in all cases: NCI-60 cell line screen, 48 h; in the data active = GI50 below about 0.43 µM; inactive = the rest
[1] = test system: OVCAR-8 ovarian
[2] = test system: NCI-H522 lung
[3] = test system: CCRF-CEM leukemia
[4] = test system: SK-MEL-5 melanoma
[5] = test system: PC-3 prostate
[6] = test system: HCT-15 colon
[7] = test system: HT29 colon
[8] = test system: SW-620 colon
[9] = test system: ACHN renal
[10] = test system: SF-539 CNS
[11] = test system: A549 NSCLC
[12] = test system: MOLT-4 leukemia
[13] = test system: RXF 393 renal
[14] = test system: HOP-62 NSCLC
[15] = test system: U251 CNS
[16] = test system: UACC-62 melanoma
[17] = test system: SF-295 CNS
[18] = test system: MDA-MB-435
[19] = test system: T-47D breast
[20] = test system: SNB-19 CNS
[21] = test system: HOP-92 NSCLC
[22] = test system: SK-MEL-28 melanoma
[23] = test system: SNB-75 CNS
[24] = test system: M14 melanoma
[25] = test system: COLO 205 colon
[26] = test system: MALME-3M melanoma
[27] = test system: NCI-H226 lung
[28] = test system: OVCAR-4 ovarian
[29] = test system: HCT-116 colon
[30] = test system: IGROV1 ovarian
[31] = test system: MDA-MB-231 breast
[32] = test system: UO-31 renal
[33] = test system: SN12C renal
[34] = test system: BT-549 breast
[35] = test system: LOX IMVI melanoma
[36] = test system: DU-145 prostate
[37] = test system: RPMI-8226 leukemia
[38] = test system: HS 578T breast
[39] = test system: NCI-H460 lung
[40] = test system: MCF7 breast
[41] = test system: HL-60(TB) leukemia
[42] = test system: SR leukemia
[43] = test system: 786-0 renal
[44] = test system: HCC-2998 colon
[45] = test system: SK-MEL-2 melanoma
[46] = test system: K-562 leukemia
[47] = test system: SK-OV-3 ovarian
[48] = test system: UACC-257 melanoma
[49] = test system: OVCAR-5 ovarian
[50] = test system: NCI-H23 lung
[51] = test system: SF-268 CNS
[52] = test system: NCI/ADR-RES ovarian
[53] = test system: A498 renal
[54] = test system: KM12 colon
[55] = test system: OVCAR-3 ovarian
[56] = test system: EKVX NSCLC
[57] = test system: TK-10 renal

CC/C=C\C[C@H]1CC=C2C(=O)C=C[C@@H]2CC=CCCCC(=O)O[C@@H](CCCCC)CC=C2C(=O)C=C[C@@H]2CC=CCCCC(=O)O[C@@H](CCCCC)CC=C2C(=O)C=C[C@@H]2CC=CCCCC(=O)O[C@@H](CCCCC)CC=C2C(=O)C=C[C@@H]2CC=CCCCC(=O)O1
2870 nM: TGI [13]
inactive: GI50 [1] 2290 nM | GI50 [2] 1760 nM | GI50 [3] 1650 nM | GI50 [4] 1850 nM | GI50 [5] 2380 nM | GI50 [6] 2840 nM | GI50 [7] 2860 nM | GI50 [8] 2540 nM | GI50 [9] 2620 nM | GI50 [10] 2220 nM | GI50 [11] 3590 nM | GI50 [12] 2390 nM | GI50 [13] 1370 nM | GI50 [14] 1710 nM | GI50 [15] 1450 nM | GI50 [16] 1520 nM | GI50 [17] 2020 nM | GI50 [18] 1590 nM | GI50 [19] 1810 nM | GI50 [20] 2830 nM | GI50 [21] 1530 nM | GI50 [22] 1990 nM | GI50 [23] 3800 nM | GI50 [24] 2090 nM | GI50 [25] 1640 nM | GI50 [26] 2770 nM | GI50 [27] 2480 nM | GI50 [28] 2200 nM | GI50 [29] 1300 nM | GI50 [30] 2320 nM | GI50 [31] 1910 nM | GI50 [32] 1410 nM | GI50 [33] 1990 nM | GI50 [34] 1780 nM | GI50 [35] 1220 nM | GI50 [36] 2680 nM | GI50 [37] 1830 nM | GI50 [38] 2680 nM | GI50 [39] 2450 nM | GI50 [40] 1460 nM | GI50 [41] 2090 nM | GI50 [42] 1580 nM | GI50 [43] 2290 nM | GI50 [44] 1860 nM | GI50 [45] 2210 nM | GI50 [46] 2500 nM | GI50 [47] 7640 nM | GI50 [48] 2950 nM | GI50 [49] 4020 nM | GI50 [50] 2340 nM | GI50 [51] 2620 nM | GI50 [52] > 7900 nM | GI50 [53] 2250 nM | GI50 [54] 2510 nM | GI50 [55] 1660 nM | GI50 [56] 2410 nM | GI50 [57] 3000 nM
2470 nM: TGI [35]
7810 nM: TGI [30]
2840 nM: TGI [32]
5120 nM: TGI [19]
6260 nM: TGI [41]
4320 nM: TGI [21]
5210 nM: TGI [34]
5830 nM: TGI [37]
4990 nM: TGI [31]
6930 nM: TGI [7]
4010 nM: TGI [55]
> 7900 nM: TGI [1] | TGI [3] | TGI [5] | TGI [6] | TGI [8] | TGI [9] | TGI [10] | TGI [11] | TGI [12] | TGI [20] | TGI [23] | TGI [26] | TGI [27] | TGI [28] | TGI [36] | TGI [38] | TGI [39] | TGI [40] | TGI [42] | TGI [46] | TGI [47] | TGI [48] | TGI [49] | TGI [50] | TGI [51] | TGI [52] | TGI [53] | TGI [54] | TGI [56] | TGI [57]
3130 nM: TGI [15]
6860 nM: TGI [33]
3600 nM: TGI [25]
3060 nM: TGI [29]
4540 nM: TGI [18]
6300 nM: TGI [22]
3860 nM: TGI [14]
4500 nM: TGI [4]
3590 nM: TGI [16]
7460 nM: TGI [24]
4070 nM: TGI [44]
5380 nM: TGI [45]
6510 nM: TGI [43]
6320 nM: TGI [17]
4480 nM: TGI [2]
